Here are results for 116 compounds from a melting point compilation (Tetko et al.).

Each structure is given as a SMILES string.

Usually melting point stands for the temperature of the solid-liquid transition. In turn, `[O-][N+](=Nc1ccccc1)c1ccc(N=Nc2ccc([N+]([O-])=Nc3ccccc3)cc2)cc1` had a melting point of 138 to 139 °C.

With `COc1ccc(-c2ccc(S(=O)(=O)N3CCCC3C(=O)O)cc2)cc1` (stereo unspecified), the melting point is 154 °C.

As to `O=C(Cc1ccccc1)OCc1ccccc1[N+](=O)[O-]`, the melting point stood at 54 °C.

The compound `O=C1C(=Cc2ccc(O)c(O)c2)Oc2cc(O)ccc21` displayed a melting point of 303 °C.

Turning to `COC(=O)c1cc(OC)c(C)c(OC)c1`, the melting point was 104 °C.

On to `Cc1ccc(Sc2ccc(C=O)cc2[N+](=O)[O-])cc1`, for which the melting point lay within 138 to 141 °C.

`CCCCC(C)O` (stereo unspecified) yielded a melting point of -23 °C.

Consider `Cc1cc(Br)cc(Br)c1N`, for which the melting point was 44 to 49 °C.

For `COc1cc(CCN)cc(OC)c1OC`, the melting point worked out at 35.5 °C.

In the case of `CCCOc1ccc2[nH]c(NC(=O)OC)nc2c1`, the melting point was 230 °C.

Compound `CNc1cc(Cl)ccc1[N+](=O)[O-]` had a melting point of 104 to 107 °C.

Turning to `CNC[C@H](O)[C@@H](O)[C@H](O)[C@H](O)CO`, the melting point is 128 °C.

The compound `FC(F)(F)c1ccc(Cl)c(C(F)(F)F)c1` showed a melting point of -59 °C.

The compound `Clc1ccc(-c2cc[nH]n2)cc1` yielded a melting point of 80 to 84 °C.

In turn, `CCCCCCCCOC(=O)CCC` returned a melting point of -55.6 °C.

Compound `CC12CCC(C(=CCC=C3C(=O)C4(C)CCC3C4(C)C)C1=O)C2(C)C` returned a melting point of 265 to 267 °C.

With `CN(CC(=O)O)C(=O)OC(C)(C)C`, the melting point was determined as 91 °C.

The compound `O=Cc1ccc2nonc2c1` gave a melting point of 58 °C.

`O=C(O)COc1ccc2ccccc2c1` yielded a melting point of 156 °C.

`CC1(C)N=C(c2ccccc2)C=[N+]1[O-]` yielded a melting point of 108 to 111 °C.

Regarding `CC(=O)Nc1cc(CCNC(=O)c2ccccc2)cc(NC(C)=O)c1CCNC(=O)c1ccccc1`, the melting point came to 268 °C.

In turn, `CC(C)=C1CC(=C(C)C)C1=O` had a melting point of 87 °C.

Compound `NC(=S)Cn1cnc(Cl)c1Cl` showed a melting point of 204 to 207 °C.

The compound `ClCc1cc2c(cc1Cl)OCO2` came in with a melting point of 64 °C.

In turn, `C=COC(C)=O` gave a melting point of -93.2 °C.

As for `Cc1ccc(S(=O)(=O)OCC2COC(C)(C)O2)cc1` (stereo unspecified), the melting point was 29 to 31 °C.

Turning to `CCCCC(=O)OC(=O)CCCC`, the melting point is -56.1 °C.

For the compound `Cn1ccc2cc(C=O)ccc21`, the melting point lay within 84 to 86 °C.

In turn, `CCCc1c(O)ccc2c(=O)cc(C(=O)O)oc12` registered a melting point of 264 to 267 °C.

In turn, `COc1ccc(CC2NCC(O)C2OC(C)=O)cc1` (stereo unspecified) registered a melting point of 141 °C.

As to `O=C1NC2=Cc3ccccc3C2(O)Cc2ccccc21` (stereo unspecified), the melting point came out at 209 °C.

`O=C(O)CNC(=O)OCC1c2ccccc2-c2ccccc21` yielded a melting point of 174 to 178 °C.

Consider `O=C(O)c1c[nH]c(=O)c(Cl)c1`, for which the melting point was 284 to 286 °C.

Turning to `Cc1cc(-c2ccc(N=C=O)c(C)c2)ccc1N=C=O`, the melting point turned out to be 71 °C.

Turning to `O=C(O)c1ccnc(Cl)c1`, the melting point was determined as 231 °C.

Turning to `Cc1ccc(C=O)c(O)c1`, the melting point turned out to be 60.5 °C.

Compound `O=C1C(=O)N(c2ccccc2)c2ccccc21` registered a melting point of 141 °C.

`Cc1ccccc1NC(=O)c1cnc(C(C)(C)C)c(Cl)n1` displayed a melting point of 115 °C.

As to `COc1cc(/C=C/[N+](=O)[O-])c([N+](=O)[O-])cc1OC`, the melting point is 168 to 169 °C.

The compound `Cc1ccc(C)c(NN=C2C(=O)NN=C2C(F)(F)F)c1` had a melting point of 189 °C.

Turning to `O=S1(=O)CCCCO1`, the melting point worked out at 13.5 °C.

In turn, `COC(=O)C(C#N)=C(SCc1ccccc1)SCc1ccccc1` yielded a melting point of 104 °C.

With `BrCc1ccccc1Br`, the melting point came to 31 °C.

The compound `c1ccc(COc2cccc3[nH]ccc23)cc1` yielded a melting point of 60 °C.

For the compound `Cc1cc(C)c(NC(=O)CN(CC(=O)O)CC(=O)O)c(C)c1`, the melting point was 218 to 221 °C.

In turn, `Oc1ccc(Br)c(Cl)c1` gave a melting point of 66 °C.

The compound `N#Cc1ccc(C(F)(F)F)nc1` had a melting point of 39 °C.

Compound `Cc1c(C(N)=O)cc([N+](=O)[O-])cc1[N+](=O)[O-]` displayed a melting point of 177 °C.

`Cc1cccc(Nc2ccncc2S(=O)(=O)NC(=O)NC(C)C)c1` displayed a melting point of 163 °C.

Turning to `Cn1ncc(Br)c1N`, the melting point lay in the range of 104 to 105 °C.

On to `COc1ccc(C)cc1`, for which the melting point is -32 °C.

In the case of `N#Cc1cccc(N2CCOCC2)n1`, the melting point lay within 133 to 135 °C.

`O=S(=O)(O)CCCN1CCN(CCO)CC1` showed a melting point of 231 °C.

`CC(=O)Oc1cc2c(cc1Cl)C1(OC(=O)c3ccccc31)c1cc(Cl)c(OC(C)=O)cc1O2` came in with a melting point of 239 to 246 °C.

For `NC(=S)c1ccc2c(c1)OCO2`, the melting point is 183 to 186 °C.

With `ClCCCCCCCCCCCCCl`, the melting point stood at 29 °C.

For `NS(=O)(=O)c1ccc2ccccc2c1`, the melting point was 219 °C.

Consider `CC(=O)C1CC[C@]2(C)[C@H]3CC[C@]4(C)C(O)CC[C@H]4[C@@H]3CC[C@@]2(C)C1` (stereo partly specified), for which the melting point came out at 152 °C.

Compound `CC(C)CN(CC(C)C)CC(C)C` came in with a melting point of -21.8 °C.

In turn, `Cn1c(=O)c(C2=NNC(=O)C2=Cc2ccccn2)c(O)c2ccccc21` showed a melting point of 292 °C.

Take `CC1CCC(C)CC1` (stereo unspecified): the melting point was -36.9 °C.

On to `O=C(O)CCn1cncn1`, for which the melting point was 177 to 179 °C.

With `C=CCC1(c2ccccc2)C(=O)NC(=O)NC1=O`, the melting point is 156 °C.

Compound `NC1(C(=O)O)CCCC1` gave a melting point of 320 to 322 °C.

In turn, `C=C(C)C(=O)OCC1CO1` (stereo unspecified) displayed a melting point of -82 °C.

Consider `O=C(O)C(F)(F)c1ccccc1`, for which the melting point was found to be 75 °C.

`OCc1ccccc1-c1ccco1` gave a melting point of 72 °C.

Compound `c1ccc2c(c1)CCc1ccccc1C1(OCCO1)C21OCCO1` returned a melting point of 111 °C.

For `COC(=O)c1ccc(N)c(Cl)c1`, the melting point turned out to be 113 °C.

On to `CC(C)(C)C(=O)C(C)(C)C`, for which the melting point was -25.2 °C.

`CCOC(=O)C1=C2c3ncccc3ON2C(Cl)C(Cl)C1Cl` (stereo unspecified): the melting point was determined as 105 °C.

With `Cc1c(C)c(C)c(CC#N)c(C)c1C`, the melting point was 112 °C.

`CCOC(=O)c1cc2cc3cc(C(=O)OCC)c(C)nc3cc2nc1C` gave a melting point of 167 °C.

Compound `Cc1n[nH]c(SCC(=O)c2ccc(Cl)cc2)n1` gave a melting point of 185 to 188 °C.

Consider `CC(N)(Cc1ccc(O)cc1)C(=O)O` (stereo unspecified), for which the melting point was determined as 312 °C.

`Nc1cccc(C(c2cccc(N)c2)(C(F)(F)F)C(F)(F)F)c1` returned a melting point of 86 °C.

Compound `NC(=O)C(F)(F)C(F)(F)C(F)(F)F` registered a melting point of 103 to 105 °C.

In the case of `Cc1cn(C2CCC(CO)O2)c(=O)[nH]c1=O` (stereo unspecified), the melting point was 156 °C.

For `O=C(O)c1ccc(O)cc1Cl`, the melting point was in the range of 207 to 209 °C.

`Cc1cc(Sc2ccc(C(=O)O)cc2[N+](=O)[O-])c(C)cc1Cl` had a melting point of 243 to 248 °C.

On to `CCCNC(N)=S`, for which the melting point lay in the range of 120 to 123 °C.

Turning to `CCCC(C)(O)CCC`, the melting point is -82 °C.

Consider `CCOC(=O)C1CCN(c2nc(Cl)nc(Cl)n2)CC1`, for which the melting point came to 150 °C.

Take `Cc1ccc(C)n1-c1cc([N+](=O)[O-])ccc1F`: the melting point is 56 to 58 °C.

Take `O=C1CNCCN1`: the melting point was found to be 132 °C.

`Cn1nnc2cc(CBr)ccc21` displayed a melting point of 120 °C.

On to `Cc1nccn1-c1ccc(CN)cc1`, for which the melting point is 90.5 to 91.5 °C.

The compound `Nc1ccccc1N1CCOCC1` displayed a melting point of 98 to 99 °C.

The compound `CC(C)CNC(=O)N1CCNC1=O` registered a melting point of 95.5 °C.

`CCCCCCCC(=O)OCCC` returned a melting point of -46.2 °C.

In turn, `Cn1c(C(=O)O)ccc1S(N)(=O)=O` had a melting point of 210 to 212 °C.

`O=c1c(Cl)c(Cl)cnn1-c1ccccc1`: the melting point was in the range of 163 to 164 °C.

On to `O=C=Nc1cccc(COc2ccccc2)c1`, for which the melting point is 51 to 53 °C.

As for `NS(=O)(=O)c1ccc(Br)s1`, the melting point is 139 to 141 °C.

`Cc1ccc(CO)c(C)c1` returned a melting point of 22 °C.

Consider `CC(C(=O)NCCO)c1ccc(-c2ccccc2)c(F)c1` (stereo unspecified), for which the melting point was 94 to 96 °C.

`O=[N+]([O-])c1cc(-c2ncco2)cc([N+](=O)[O-])c1`: the melting point was determined as 130 °C.

`CCN(CC)C(=O)CSc1ccc(Cl)nn1` had a melting point of 98 °C.

As for `CC(C)(C)OC(=O)N1CCN(Cc2cccc(N)c2)CC1`, the melting point was in the range of 107 to 108 °C.

In turn, `O=C1OC(=O)C2=C1Cc1cc3c(cc1C2)CC3` yielded a melting point of 254 °C.

Take `CCOc1cc2c(cc1OC)CCNC2CC(C)C` (stereo unspecified): the melting point turned out to be 151 °C.

In turn, `C/C(CCc1oc2c(Br)cc(Br)cc2c1-c1ccc(C)o1)=N/O` gave a melting point of 157 to 158 °C.

Regarding `CC(=O)NNC(C)=O`, the melting point worked out at 140 °C.

On to `Cc1cccc(NC(=O)c2nn(-c3ccccc3)nc2C)n1`, for which the melting point was 136 to 137 °C.

The compound `COc1cccc(C(=O)C(=O)c2cccc(OC)c2)c1` had a melting point of 82 °C.

The compound `O=C(O)C(O)(C(F)(F)F)C(F)(F)F` had a melting point of 81 °C.

Consider `Cc1ccc(C(=O)CCC(=O)O)cc1`, for which the melting point is 129 °C.

Consider `Cc1ccc(C(=O)c2nn(-c3ccccc3)/c(=N\N=Cc3ccco3)s2)cc1`, for which the melting point came out at 113 °C.

Turning to `O=C1CCCC(Cl)(Cl)C1(O)O`, the melting point was in the range of 120 to 124 °C.

`CC(C)(C)NC(=O)C(C(F)(F)F)C(F)(F)F` came in with a melting point of 201 °C.

Take `CNc1ccncc1`: the melting point turned out to be 126 °C.

As for `c1ccnnc1`, the melting point was -8 °C.

As to `N[C@@H](CS)C(=O)O`, the melting point is 240 °C.

Take `Cc1c(C)c(N)c(C)c(C)c1N`: the melting point fell in the range of 150 to 153 °C.

The compound `CCCCCCCCCCCCCCCC(C)O` (stereo unspecified) yielded a melting point of 54 °C.

`Nc1ccc(C(=O)O)cc1[N+](=O)[O-]` returned a melting point of 290 °C.
